According to patent US9739765B2, “Metal-based covalent viability reagent for single cell analysis” (The Board of Trustees of the Leland Stanford Junior …, priority 2013, dated 2017):

Key:
KG-1 cells = test: Cisplatin viability labeling of partially heat-killed KG-1 cells, mass cytometry; type: cell-based, human; conditions: KG-1 cells spiked with approximately 30% heat-killed cells; 1 min cisplatin at 10, 50, or 250 μM (all doses)
Experimental: Generation of non-viable control cells. To generate samples with known amounts of non-viable cells, an aliquot of cultured cells was heat-killed at 55° C. for 1 hour, cooled to 37° C. and then spiked into each culture of viable cells at known percentages based on Trypan blue exclusion staining. Samples were then prepared for fluorescence and mass cytometry and the live/dead ratio of cells determined by each technology.
Cisplatin exposure. Cisplatin (WR International, Radnor, Pa., Cat #89150-634) was stored at −80° C. as a stock solution of 100 mM in DMSO (Hybrimax, Sigma Aldrich, St Louis, Mo.). Working solutions (10 mM) were prepared fresh on the day of each experiment by diluting the stock solution into PBS at 4° C. […]
(§1) Mass cytometry measurement. Cells were analyzed on a CyTOF® mass cytometer (DVS Sciences, Richmond Hill, Ontario, Canada). […] Cells were measured at approximately 500 cells per second, noise reduction was activated and cell extraction parameters were set to: Cell length, range was set from 10 to 65 pushes, and the lower convolution threshold was set to 10.
Comparison between fluorescence and mass cytometry protocols. […] In the first experiment a suspension of human myeloid KG-1 cells spiked with approximately 30% of heat-killed KG-1 cells (determined by Trypan blue extrusion), was tested with Aqua and cisplatin. […]

[1] = system: Jurkat, KG-1, HeLa, OVCAR3 cell lines; test: Cisplatin viability labeling of suspension and adherent cell lines spiked with heat-killed cells, mass cytometry; type: cell-based
Experimental: Cell culture. The cancer cell lines Jurkat (T acute lymphoblastic leukemia suspension cells) and OVCAR-3 (ovarian carcinoma adherent cells) were cultured in RPMI-1640 (GIBCO, Invitrogen, Carlsbad, Calif.) with 10% heat-inactivated fetal bovine serum (FBS), 2 mM L-glutamine and 100 U/ml penicillin. The suspension cell lines KG-1 (acute myeloid leukemia) and HL-60 (acute myeloid leukemia cells) were cultured in IMDM (GIBCO, Invitrogen, Carlsbad, Calif.) with 20% heat-inactivated FBS and 100 U/ml penicillin. The adherent cell line HeLa (cervical carcinoma) was cultured in DMEM (GIBCO, Invitrogen, Carlsbad, Calif.) with 10% heat-inactivated FBS and 100 U/ml penicillin. All cell lines were maintained at 37° C. in a humidified 5.0% CO2 environment. Peripheral blood from healthy donors was purchased from the Stanford Blood Bank according to an IRB-approved protocol. […] Samples were then prepared for fluorescence and mass cytometry and the live/dead ratio of cells determined by each technology. […] Cells were analyzed on a CyTOF® mass cytometer (DVS Sciences, Richmond Hill, Ontario, Canada). […] Cells were measured at approximately 500 cells per second, noise reduction was activated and cell extraction parameters were set to: Cell length, range was set from 10 to 65 pushes, and the lower convolution threshold was set to 10. […]

[2] = system: phosphorylation of SLP-76 (Y128) and SLP-65 in PBMCs; test: Pervanadate stimulation of cisplatin-labeled PBMCs, pSLP-76/65 signaling; type: cell-based; conditions: myeloid cells, T cells and B cells of PBMCs; 125 μM, 15 min
Experimental: Pervanadate stimulation of PBMCs. Frozen PBMCs were thawed at 37° C. and resuspended in RPMI-1640/10% FBS/2 mM EDTA. A fraction of the PBMCs (30%) was heat-killed separately and spiked back in, as described above. Cells were treated with cisplatin according to the standard protocol described above, at 10^6 cells/ml. Samples were then treated with activated sodium orthovanadate at a final concentration of 125 μM for 15 min at 37° C. Cells were fixed with 1.6% (final concentration) PFA for 10 min at room temperature.
Antibody staining. […]
as §1
Cisplatin as a viability indicator for primary samples. […] Therefore to evaluate signaling in PBMCs, phosphorylation of SLP-76 (Y128) (T cells and myeloid cells) and SLP-65 (Y76) (B cells) was determined after a […] exposure to vanadate, a global tyrosine phosphatase inhibitor, shown to increase intracellular kinase activity and phosphotyrosine levels.

Compound | frequency of cisplatin positive (dead) cells (KG-1 cells) | signal-to-noise ratios separating live and dead cells ([1]; 1-minute pulse protocol, routinely observed (FIG. 2-5)) | signal-to-noise ratios, cisplatin-high (dead) vs cisplatin-low (live) populations ([1]; each cisplatin concentration (10, 50, 250 μM), HeLa, OVCAR3, Jurkat, KG-1) | SLP-76/65 phosphorylation in response to pervanadate, cisplatin-high populations [2] | SLP-76/65 phosphorylation in response to pervanadate, cisplatin-low populations [2]
N.N.[Cl][Pt][Cl] [cisplatin, Cisplatin [Pt(NH3)2Cl]] | 26-28% | greater than 10 fold | above 10 | – | –
activated sodium orthovanadate [pervanadate] | – | – | – | no response | strong increase
